Here are results for 21 compounds from PubChem BioAssay AID248 (DTP/NCI, 2004).

This test deals with L1210 leukemia ip in BDF1 mice, survival T/C. Nature of the test: NCI In Vivo Anticancer Drug Screen. Data for tumor model L1210 Leukemia (intraperitoneal) in B6D2F1 (BDF1) mice. The following applies: endpoint: mean survival time, higher = longer survival. An outline of the steps: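 Tumor was transplanted into mice, which were then dosed with test compound or vehicle alone. Survival was recorded for each group, and the treated figure was expressed relative to the control figure.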

The mark [1] stands for this setting: dose: 100.0 mg/kg/injection, schedule: Q04DX003 (ip), vehicle: Klucel (hydroxypropylcellulose) (HPC).
[2] abbreviates: dose: 200.0 mg/kg/injection, schedule: Q04DX003 (ip), vehicle: Klucel (hydroxypropylcellulose) (HPC).
The mark [3] stands for this setting: dose: 400.0 mg/kg/injection, schedule: Q04DX003 (ip), vehicle: Klucel (hydroxypropylcellulose) (HPC).
Where [4] appears, read: dose: 100.0 mg/kg/injection, schedule: Q01DX009 (ip), vehicle: saline.
Setting [5] is: dose: 200.0 mg/kg/injection, schedule: Q01DX009 (ip), vehicle: saline.
[6] abbreviates: dose: 100.0 mg/kg/injection, schedule: Q04DX002 (ip), vehicle: Klucel (hydroxypropylcellulose) (HPC).
[7] abbreviates: dose: 200.0 mg/kg/injection, schedule: Q04DX002 (ip), vehicle: Klucel (hydroxypropylcellulose) (HPC).
The mark [8] stands for this setting: dose: 100.0 mg/kg/injection, schedule: Q01DX009 (ip), vehicle: Klucel (hydroxypropylcellulose) (HPC).
The mark [9] stands for this setting: dose: 200.0 mg/kg/injection, schedule: Q01DX009 (ip), vehicle: Klucel (hydroxypropylcellulose) (HPC).
Where [10] appears, read: dose: 100.0 mg/kg/injection, schedule: Q01DX001 (ip), vehicle: Klucel (hydroxypropylcellulose) (HPC).
[11] abbreviates: dose: 200.0 mg/kg/injection, schedule: Q01DX001 (ip), vehicle: Klucel (hydroxypropylcellulose) (HPC).
The mark [12] stands for this setting: dose: 100.0 mg/kg/injection, schedule: Q04DX003 (ip), vehicle: saline.
The mark [13] stands for this setting: dose: 200.0 mg/kg/injection, schedule: Q04DX003 (ip), vehicle: saline.

Each structure is given as a SMILES string. “And” between values parts separate entries of the source, which are not always exact repeats. Equal values may be shown once. Toxic doses and inconclusive results are not listed.

On to `CSc1nc(Cl)nc(SC)n1`, for which the T/C under setting [1] is 96 % of control, the T/C under setting [2] is 96 % of control and the T/C under setting [3] was 96 % of control.
For the compound `O=C(O)/C=C/C(=O)Nc1ccccc1-n1cccc1`, the T/C under setting [4] was 106 % of control and the T/C under setting [5] is 97 % of control.
As to `CC1=CC2CCC1C2` (stereo not drawn), the T/C is 101 % of control (dose: 75.0 mg/kg/injection, schedule: Q01DX001 (ip), vehicle: acetone) and 95 % of control (dose: 150.0 mg/kg/injection, schedule: Q01DX001 (ip), vehicle: acetone).
On to `COc1ccc(C(=O)Nc2ccc(C)c(Cl)c2)cc1`, for which the T/C runs as follows: under setting [6], 115 % of control; under setting [7], 115 % of control; (dose: 400.0 mg/kg/injection, schedule: Q04DX002 (ip), vehicle: Klucel (hydroxypropylcellulose) (HPC)) 112 % of control.
As to `COc1cc(N[Si](C)(C)C)nc(OC)n1`, the T/C is 100 % of control (dose: 50.0 mg/kg/injection, schedule: Q01DX009 (ip), vehicle: saline); 96 % of control under setting [4]; 92 % of control under setting [5].
As to `CC(=O)Nc1cccc(OCCCOc2cccc(C(=N)N)c2)c1`, the T/C was 103 % of control (dose: 50.0 mg/kg/injection, schedule: Q01DX009 (ip), vehicle: Klucel (hydroxypropylcellulose) (HPC)); 100 % of control under setting [8]; 94 % of control under setting [9].
`CC(=O)Oc1cc2c(cc1[N+](=O)[O-])OCO2`: the T/C is, setting by setting: under setting [10], 104 % of control; under setting [1], 94 % of control; under setting [11], 94 % of control; under setting [2], 93 % of control; (dose: 400.0 mg/kg/injection, schedule: Q01DX001 (ip), vehicle: Klucel (hydroxypropylcellulose) (HPC)) 98 % of control; under setting [3], 105 % of control.
Regarding `CCOC(CSC)OCC`, the T/C reads like this: (dose: 100.0 mg/kg/injection, schedule: Q01DX009 (sc), vehicle: olive oil, sesame oil, peanut oil) 99 % of control; (dose: 100.0 mg/kg/injection, schedule: Q04DX003 (sc), vehicle: olive oil, sesame oil, peanut oil) 102 % of control; (dose: 200.0 mg/kg/injection, schedule: Q01DX009 (sc), vehicle: olive oil, sesame oil, peanut oil) 94 % of control; (dose: 200.0 mg/kg/injection, schedule: Q04DX003 (sc), vehicle: olive oil, sesame oil, peanut oil) 96 % of control; (dose: 400.0 mg/kg/injection, schedule: Q01DX009 (sc), vehicle: olive oil, sesame oil, peanut oil) 91 % of control; (dose: 400.0 mg/kg/injection, schedule: Q04DX003 (sc), vehicle: olive oil, sesame oil, peanut oil) 94 % of control.
Take `Cc1cc(C(=O)NC(CCC(=O)O)C(=O)O)cc(C)c1N(C)Cc1cnc2nc(N)nc(N)c2n1` (stereo not drawn): the T/C was 158 % of control (dose: 3.13 mg/kg/injection, schedule: Q01DX009 (ip), vehicle: saline); 161 % of control (dose: 6.25 mg/kg/injection, schedule: Q01DX009 (ip), vehicle: saline); 153 % of control and 165 % of control (dose: 12.5 mg/kg/injection, schedule: Q01DX009 (ip), vehicle: saline); 101 % of control (dose: 50.0 mg/kg/injection, schedule: Q01DX009 (ip), vehicle: sodium bicarbonate).
For the compound `CP(C)(=S)P(C)(C)=S`, the T/C (dose: 25.0 mg/kg/injection, schedule: Q04DX002 (ip), vehicle: Klucel (hydroxypropylcellulose) (HPC)) was 98 % of control; the T/C (dose: 50.0 mg/kg/injection, schedule: Q04DX002 (ip), vehicle: Klucel (hydroxypropylcellulose) (HPC)) was 94 % of control; the T/C under setting [6] was 95 % of control and 112 % of control.
Regarding `COC(=O)C1(C(=O)OC)NNC(=O)c2cc(Br)ccc2N1`, the T/C was 101 % of control (dose: 50.0 mg/kg/injection, schedule: Q01DX001 (ip), vehicle: saline); 89 % of control (dose: 100.0 mg/kg/injection, schedule: Q01DX001 (ip), vehicle: saline); 95 % of control (dose: 200.0 mg/kg/injection, schedule: Q01DX001 (ip), vehicle: saline).
Consider `CCC(=O)c1ccc(N2CCCCC2)cc1`, for which the T/C was 103 % of control under setting [6] and 89 % of control under setting [7].
With `Cc1cccc(=O)n1CCC#N`, the T/C was 96 % of control under setting [4]; 101 % of control under setting [12]; 106 % of control under setting [5]; 93 % of control under setting [13]; 112 % of control (dose: 400.0 mg/kg/injection, schedule: Q01DX009 (ip), vehicle: saline); 106 % of control (dose: 400.0 mg/kg/injection, schedule: Q04DX003 (ip), vehicle: saline).
With `c1ccc(P(=NC2CCCCCC2)(c2ccccc2)c2ccccc2)cc1`, the T/C is 95 % of control (dose: 100.0 mg/kg/injection, schedule: Q01DX001 (ip), vehicle: acetone) and 94 % of control (dose: 200.0 mg/kg/injection, schedule: Q01DX001 (ip), vehicle: acetone).
Regarding `C#CCCCCCCC#CCCCCCCC#C`, the T/C is, setting by setting: (dose: 100.0 mg/kg/injection, schedule: Q04DX003 (ip), vehicle: acetone) 100 % of control; (dose: 200.0 mg/kg/injection, schedule: Q04DX003 (ip), vehicle: acetone) 110 % of control.
For `CCOc1ccc(N=[N+]([O-])c2ccc(OCC)cc2)cc1`, the T/C (dose: 100.0 mg/kg/injection, schedule: Q01DX001 (ip), vehicle: saline with Tween-80) is 103 % of control; the T/C (dose: 200.0 mg/kg/injection, schedule: Q01DX001 (ip), vehicle: saline with Tween-80) was 103 % of control; the T/C (dose: 400.0 mg/kg/injection, schedule: Q01DX001 (ip), vehicle: saline with Tween-80) is 92 % of control.
Regarding `COC(=O)C1=C(C)NC(=O)NC1c1ccccc1` (stereo not drawn), the T/C (dose: 100.0 mg/kg/injection, schedule: Q04DX003 (ip), vehicle: saline with Tween-80) was 105 % of control; the T/C (dose: 200.0 mg/kg/injection, schedule: Q04DX003 (ip), vehicle: saline with Tween-80) is 97 % of control; the T/C (dose: 400.0 mg/kg/injection, schedule: Q04DX003 (ip), vehicle: saline with Tween-80) was 100 % of control.
With `O=C(NCc1ccncc1)Nc1ccccc1F`, the T/C is 93 % of control under setting [10]; 100 % of control under setting [8]; 94 % of control and 103 % of control under setting [6]; 94 % of control under setting [1]; 104 % of control under setting [11]; 98 % of control and 105 % of control under setting [9]. The T/C was 101 % of control and 91 % of control under setting [7]; 97 % of control under setting [2].
With `CCOC(=O)/C=C\C(=O)O.[Mn]`, the T/C by setting is: (dose: 25.0 mg/kg/injection, schedule: Q01DX009 (ip), vehicle: saline with Tween-80) 97 % of control; (dose: 25.0 mg/kg/injection, schedule: Q04DX003 (ip), vehicle: saline) 108 % of control; (dose: 50.0 mg/kg/injection, schedule: Q01DX009 (ip), vehicle: saline with Tween-80) 108 % of control; (dose: 50.0 mg/kg/injection, schedule: Q04DX003 (ip), vehicle: saline) 106 % of control; (dose: 100.0 mg/kg/injection, schedule: Q01DX009 (ip), vehicle: saline with Tween-80) 110 % of control; under setting [12], 103 % of control and 108 % of control. For the same compound, the T/C under setting [13] was 120 % of control.
Take `Cc1cccc(CCc2ccc(Br)c(C)c2C)c1C`: the T/C was 100 % of control (dose: 100.0 mg/kg/injection, schedule: Q01DX001 (ip), vehicle: carboxymethylcellulose (CMC)); 103 % of control (dose: 200.0 mg/kg/injection, schedule: Q01DX001 (ip), vehicle: carboxymethylcellulose (CMC)); 94 % of control (dose: 400.0 mg/kg/injection, schedule: Q01DX001 (ip), vehicle: carboxymethylcellulose (CMC)).
`COc1ccc2ccccc2c1-c1c([N+](=O)[O-])ccc2ccccc12`: the T/C is, setting by setting: (dose: 12.5 mg/kg/injection, schedule: Q04DX002 (ip), vehicle: saline with Tween-80) 97 % of control; (dose: 25.0 mg/kg/injection, schedule: Q04DX002 (ip), vehicle: saline with Tween-80) 90 % of control; (dose: 50.0 mg/kg/injection, schedule: Q04DX002 (ip), vehicle: saline with Tween-80) 87 % of control; (dose: 100.0 mg/kg/injection, schedule: Q04DX002 (ip), vehicle: saline with Tween-80) 93 % of control.
